Source: patent US20110009437A1, “CARBOXAMIDE-HETEROARYL DERIVATIVES FOR THE TREATMENT OF DIABETES” (MERCK PATENT GESELLSCHAFT MIT BESCHRANKTER HAFTUNG, priority 2008, published 2011)

molecular target: T1, Glucokinase (Homo sapiens, UniProt P35557); assay: Glucokinase Activation Screening Assay (coupled enzyme assay with PK/LDH); type: biochemical; settings: human GK enzyme
T1 sequence (P35557 1-465): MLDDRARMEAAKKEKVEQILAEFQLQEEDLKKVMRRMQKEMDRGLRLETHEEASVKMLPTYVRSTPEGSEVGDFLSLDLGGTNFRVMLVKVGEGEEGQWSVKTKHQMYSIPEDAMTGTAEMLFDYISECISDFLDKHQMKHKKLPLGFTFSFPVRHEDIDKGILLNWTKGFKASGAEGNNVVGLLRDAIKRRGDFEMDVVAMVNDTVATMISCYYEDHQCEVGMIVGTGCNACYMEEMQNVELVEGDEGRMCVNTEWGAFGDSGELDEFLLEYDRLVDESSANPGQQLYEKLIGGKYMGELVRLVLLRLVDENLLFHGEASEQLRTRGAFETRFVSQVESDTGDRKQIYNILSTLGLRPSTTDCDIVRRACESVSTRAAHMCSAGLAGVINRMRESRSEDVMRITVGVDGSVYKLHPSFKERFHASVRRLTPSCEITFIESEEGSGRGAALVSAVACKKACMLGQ
Procedure: GK activity (human or rat enzyme) is measured by a coupled enzyme assay using pyruvate kinase (PK) and lactate dehydrogenase (LDH) as coupling enzymes. GK activity is calculated from the decline in NADH monitored photometrically with a microtiter plate (MTP) reader at 340 nm. For screening purposes, the GK assay is routinely run in a 384-MTP format, in a total volume of 33 μl/well. 10 μl of the ATP-regeneration solution (in HEPES-buffer*, pH 7.0, 6.73 U/ml pyruvate kinase, 6.8 U/ml lactate dehydrogenase) and 10 μl of the glucokinase-/glucose solution (15 μg/ml, 6.6 mM glucose in HEPES-buffer*, pH 7.0; the concentration of the glucose stock-solution was 660 mM in Millipore H2O) were mixed together with […] of a 10% DMSO solution (in HEPES-buffer*, pH 7.0) containing 3.3-fold the amounts of the compounds to achieve final compound concentrations in the range between 1 nM to 30 μM (sometimes 300 μM) in the assay solution (s. below). The solutions were mixed for 5 sec, and after a centrifugation at 243×g for 5 min, the solutions were preincubated for 25 min at room temperature.
The reaction was started by the addition of 10 μl of the NADH-/ATP-solution (4.29 mM NADH, 4.95 mM ATP, in HEPES-buffer*). The MTP was shaken for 5 sec., and then, the absorbance at 340 nm was monitored continuously in a MTP-reader (TECAN Spectro fluor plus) for the next 27 min (with a MTP-cycling time of 199 sec.). The final concentrations of the various components were as follows: 49.5 mM Hepes, pH 7.0, 1.49 mM PEP,1,3 mM NADH, 49.5 mM KCl, 4.96 mM MgCl2, 1.5 mM Mg-ATP, 1.98 mM DTT, 2.04 U/ml pyruvate kinase, 2.06 U/ml lactate-dehydrogenase, 0.91% DMSO, 0.15 μg/well glucokinase, and test compounds in the range between 1 nM and […] The change in the optical density (ΔOD340 nm) in the presence of the compound was expressed relative to the ΔOD340 nm, ctrl of the control incubation (in the presence of 2 mM glucose and 0.91% DMSO), taking into account the optical density of the blank sample (incubation in the absence of 2 mM glucose). For the determination of the half maximal effective concentration (EC50), the %-Ctrl-values were plotted in a semi-logarithmic graph against the conc. of the compound of interest. The data points were fitted to a sigmoid curve function (f(x)=((%-Ctrlmax−%-Ctrlmin)/(1−(EC50/x**^n(Hill)))+%-Ctrlmin)) by a non-linear regression analysis.
*Hepes-buffer (50 mM Hepes, pH 7.0, 5 mM MgCl2, 50 mM KCl, 1.5 mM PEP, 0.1% BSA). DTT was added to the Hepes-buffer from a 200× stock solution (in Millipore H2O) freshly each day. The final concentration of DTT in the Hepes-buffer is 2 mM.

| Compound | fold activation (human) |
| --- | --- |
| CN(Cc1ccccc1)c1cc(C(=O)Nc2ccn(C)n2)cc(Oc2ccccc2)n1 [B8, 2-(Benzyl-methyl-amino)-N-(1-methyl-1H-pyrazol-3-yl)-6-phenoxy-isonicotinamide] | 1.4 fold |
| COCC(C)Oc1cc(OC(C)COC)nc(C(=O)Nc2ccn(C)n2)n1 (stereo not drawn) [B7, 4,6-Bis-(2-methoxy-1-methyl-ethoxy)-pyrimidine-2-carboxylic acid (1-methyl-1H-pyrazol-3-yl)-amide] | 1.3 fold |
| Cn1ccc(NC(=O)c2cc(Cl)nc(Oc3ccccc3)c2)n1 [B5, 2-Chloro-N-(1-methyl-1H-pyrazol-3-yl)-6-phenoxy-isonicotinamide] | 1.3 fold |
| CN(C)c1cc(C(=O)Nc2ccn(Cc3cccnc3)n2)cc(Oc2ccccc2)n1 [B2, 2-Dimethylamino-6-phenoxy-N-(1-pyridin-3-ylmethyl-1H-pyrazol-3-yl)-isonicotinamide] | 3.3 fold |
| COCCN(C)c1cc(C(=O)Nc2ccn(C)n2)cc(Oc2ccccc2)n1 [B6, 2-[(2-Methoxy-ethyl)-methyl-amino]-N-(1-methyl-1H-pyrazol-3-yl)-6-phenoxy-isonicotinamide] | 3.4 fold |
| COCCN(C)c1cc(C(=O)Nc2ccn(Cc3cccnc3)n2)cc(Oc2ccccc2)n1 [B4, 2-[(2-Methoxy-ethyl)-methyl-amino]-6-phenoxy-N-(1-pyridin-3-ylmethyl-1H-pyrazol-3-yl)-isonicotinamide] | 1.8 fold |
